Patent publication US11697648B2, “Fused pyrimidine pyridinone compounds as JAK inhibitors” (THERAVANCE BIOPHARMA R&D IP, LLC, priority 2019, dated 2023)

Columns and labels:
Tyk2 = Tyk2 (Homo sapiens (Human), UniProt P29597); assay: Biochemical Tyk2 kinase assay (LanthaScreen)
Summary of the method: (§1)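 GST-JAK + GFP-STAT1 peptide, HEPES pH 7.5/MgCl2/EGTA/Brij-35 buffer; cpd preincubation 1 h RT; ATP start, 1 h RT; stop with 10 mM EDTA + 2 nM Tb-anti-pSTAT1; TR-FRET 520/495. 4-parameter IC50 → pKi (Cheng-Prusoff).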

JAK2 = JAK2 (Homo sapiens (Human), UniProt O60674); assay: Biochemical JAK2 kinase assay (LanthaScreen)
Summary of the method: as §1

JAK3 = JAK3 (Homo sapiens (Human), UniProt P52333); assay: Biochemical JAK3 kinase assay (LanthaScreen); settings: for JAK3 (pKi)-JAK1 (pKi): selectivity JAK3 over JAK1, difference of pKi
Summary of the method: as §1

JAK1 = JAK1 (Homo sapiens (Human), UniProt P23458); assay: Biochemical JAK1 kinase assay (LanthaScreen)
Summary of the method: as §1

[1] = test system: IL-2 stimulated STAT5 phosphorylation in Tall-1 human T cell line (JAK3); assay: Cellular JAK3 potency assay: inhibition of IL-2 stimulated pSTAT5 in Tall-1 T cells; format: cell-based; settings: IL-2 stimulated pSTAT5, Tall-1 T cells
Summary of the method: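 AlphaLISA SureFire Ultra measures STAT5 Tyr694/699 phosphorylation in lysed Tall-1 human T cells. Cells were exposed to compound for 1 h at 37 °C before a 30 min IL-2 challenge (300 ng/ml final). Values are pIC50 means with standard deviation from signal-versus-concentration curves.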

Caco-2 cell monolayers = assay: Caco-2 permeation assay; format: in vitro ADME; settings: 5 μM, A-B direction, with Verapamil (25 μM)
Summary of the method: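 Passive A-to-B permeability with P-gp inhibited by verapamil (25 μM); compound at 5 μM, n=2. Both compartments sampled at t0 and t120 and quantified by LC-MS/MS, giving apparent permeability in cm/sec from flux, area and concentration.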

Chain of JAK1 (P23458 whole entry): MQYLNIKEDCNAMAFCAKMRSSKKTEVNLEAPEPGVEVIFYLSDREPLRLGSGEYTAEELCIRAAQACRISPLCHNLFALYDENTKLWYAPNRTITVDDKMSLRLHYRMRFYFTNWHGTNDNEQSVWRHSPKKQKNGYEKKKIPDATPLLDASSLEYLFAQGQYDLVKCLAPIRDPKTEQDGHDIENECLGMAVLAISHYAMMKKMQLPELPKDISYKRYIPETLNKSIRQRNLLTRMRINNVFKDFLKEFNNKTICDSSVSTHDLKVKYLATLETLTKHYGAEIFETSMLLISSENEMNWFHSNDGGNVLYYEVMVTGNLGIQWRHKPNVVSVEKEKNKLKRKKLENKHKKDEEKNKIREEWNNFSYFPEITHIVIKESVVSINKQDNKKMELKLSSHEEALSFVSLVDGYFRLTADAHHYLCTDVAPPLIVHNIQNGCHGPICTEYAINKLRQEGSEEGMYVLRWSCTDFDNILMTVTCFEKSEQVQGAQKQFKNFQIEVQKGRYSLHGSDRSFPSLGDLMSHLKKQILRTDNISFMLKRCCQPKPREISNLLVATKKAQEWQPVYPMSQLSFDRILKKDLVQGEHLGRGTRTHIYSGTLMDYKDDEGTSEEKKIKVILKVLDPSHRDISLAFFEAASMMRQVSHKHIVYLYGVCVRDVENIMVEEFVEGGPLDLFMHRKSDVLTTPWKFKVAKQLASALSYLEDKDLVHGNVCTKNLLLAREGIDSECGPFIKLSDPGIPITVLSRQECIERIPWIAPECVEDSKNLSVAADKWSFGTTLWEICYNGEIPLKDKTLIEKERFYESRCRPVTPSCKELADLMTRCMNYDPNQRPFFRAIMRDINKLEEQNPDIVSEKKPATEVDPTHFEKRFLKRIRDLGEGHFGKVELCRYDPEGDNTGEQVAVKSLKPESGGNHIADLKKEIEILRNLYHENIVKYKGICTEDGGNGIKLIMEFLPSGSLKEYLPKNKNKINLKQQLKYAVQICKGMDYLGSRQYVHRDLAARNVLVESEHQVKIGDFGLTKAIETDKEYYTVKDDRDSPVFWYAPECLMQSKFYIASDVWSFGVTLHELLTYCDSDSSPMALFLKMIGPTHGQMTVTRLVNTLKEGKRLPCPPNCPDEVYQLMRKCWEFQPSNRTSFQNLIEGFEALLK
Chain of JAK2 (O60674 whole entry): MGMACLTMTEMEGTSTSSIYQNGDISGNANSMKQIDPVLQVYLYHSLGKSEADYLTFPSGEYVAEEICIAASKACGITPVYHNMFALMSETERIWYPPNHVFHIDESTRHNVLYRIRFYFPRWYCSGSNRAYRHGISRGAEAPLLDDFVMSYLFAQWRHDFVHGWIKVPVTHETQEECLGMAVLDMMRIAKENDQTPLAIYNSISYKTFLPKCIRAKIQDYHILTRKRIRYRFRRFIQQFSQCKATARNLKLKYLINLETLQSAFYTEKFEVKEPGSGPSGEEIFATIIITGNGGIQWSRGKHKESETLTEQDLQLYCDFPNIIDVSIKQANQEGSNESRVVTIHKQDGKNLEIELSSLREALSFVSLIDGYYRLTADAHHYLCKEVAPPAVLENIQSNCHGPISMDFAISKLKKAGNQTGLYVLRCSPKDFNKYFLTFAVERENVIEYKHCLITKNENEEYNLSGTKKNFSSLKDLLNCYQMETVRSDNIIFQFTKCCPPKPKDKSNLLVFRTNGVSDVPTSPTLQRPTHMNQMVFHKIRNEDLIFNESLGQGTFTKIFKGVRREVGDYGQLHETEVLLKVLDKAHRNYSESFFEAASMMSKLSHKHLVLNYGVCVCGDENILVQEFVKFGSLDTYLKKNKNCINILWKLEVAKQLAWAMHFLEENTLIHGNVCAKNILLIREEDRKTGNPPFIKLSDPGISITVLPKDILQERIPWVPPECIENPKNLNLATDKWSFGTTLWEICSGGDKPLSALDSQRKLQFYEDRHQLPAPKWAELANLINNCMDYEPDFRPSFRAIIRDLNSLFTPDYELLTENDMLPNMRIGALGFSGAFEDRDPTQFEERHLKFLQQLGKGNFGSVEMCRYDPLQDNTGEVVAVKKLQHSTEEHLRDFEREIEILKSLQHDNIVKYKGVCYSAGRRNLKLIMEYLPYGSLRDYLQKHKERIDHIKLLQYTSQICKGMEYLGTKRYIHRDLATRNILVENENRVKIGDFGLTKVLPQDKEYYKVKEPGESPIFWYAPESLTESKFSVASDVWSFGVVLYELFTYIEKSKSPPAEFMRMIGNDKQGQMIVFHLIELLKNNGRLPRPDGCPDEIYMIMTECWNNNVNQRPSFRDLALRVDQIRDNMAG
Chain of Tyk2 (P29597 whole entry): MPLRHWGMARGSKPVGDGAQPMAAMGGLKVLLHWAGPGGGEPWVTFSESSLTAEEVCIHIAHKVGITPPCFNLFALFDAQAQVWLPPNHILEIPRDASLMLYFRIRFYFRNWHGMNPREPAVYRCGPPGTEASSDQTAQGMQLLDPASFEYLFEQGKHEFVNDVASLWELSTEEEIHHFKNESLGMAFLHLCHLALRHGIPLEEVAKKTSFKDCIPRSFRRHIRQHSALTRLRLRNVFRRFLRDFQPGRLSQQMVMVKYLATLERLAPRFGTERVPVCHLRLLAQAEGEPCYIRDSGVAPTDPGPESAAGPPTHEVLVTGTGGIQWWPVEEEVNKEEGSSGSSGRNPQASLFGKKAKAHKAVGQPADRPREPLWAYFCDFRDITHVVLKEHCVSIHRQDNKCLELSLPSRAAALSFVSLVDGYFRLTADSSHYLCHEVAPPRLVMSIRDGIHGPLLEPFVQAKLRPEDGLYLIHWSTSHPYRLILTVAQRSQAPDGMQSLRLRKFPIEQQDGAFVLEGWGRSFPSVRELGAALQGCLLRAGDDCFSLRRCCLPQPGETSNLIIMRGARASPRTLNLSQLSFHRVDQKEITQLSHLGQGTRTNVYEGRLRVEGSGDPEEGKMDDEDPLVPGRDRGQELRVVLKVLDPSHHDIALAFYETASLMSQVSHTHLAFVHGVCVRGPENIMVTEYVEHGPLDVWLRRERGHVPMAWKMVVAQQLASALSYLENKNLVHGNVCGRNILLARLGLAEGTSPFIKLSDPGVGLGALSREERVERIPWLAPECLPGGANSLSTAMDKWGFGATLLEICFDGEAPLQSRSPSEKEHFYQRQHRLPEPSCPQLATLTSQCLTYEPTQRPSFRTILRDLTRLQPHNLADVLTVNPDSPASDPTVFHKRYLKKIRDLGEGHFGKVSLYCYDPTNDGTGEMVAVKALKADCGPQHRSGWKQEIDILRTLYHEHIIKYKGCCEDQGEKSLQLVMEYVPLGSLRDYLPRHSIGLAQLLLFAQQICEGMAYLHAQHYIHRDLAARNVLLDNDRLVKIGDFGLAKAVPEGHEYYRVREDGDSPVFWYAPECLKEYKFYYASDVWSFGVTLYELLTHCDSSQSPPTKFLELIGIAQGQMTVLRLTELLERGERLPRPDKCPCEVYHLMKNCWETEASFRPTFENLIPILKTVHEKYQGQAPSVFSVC
Chain of JAK3 (P52333 whole entry): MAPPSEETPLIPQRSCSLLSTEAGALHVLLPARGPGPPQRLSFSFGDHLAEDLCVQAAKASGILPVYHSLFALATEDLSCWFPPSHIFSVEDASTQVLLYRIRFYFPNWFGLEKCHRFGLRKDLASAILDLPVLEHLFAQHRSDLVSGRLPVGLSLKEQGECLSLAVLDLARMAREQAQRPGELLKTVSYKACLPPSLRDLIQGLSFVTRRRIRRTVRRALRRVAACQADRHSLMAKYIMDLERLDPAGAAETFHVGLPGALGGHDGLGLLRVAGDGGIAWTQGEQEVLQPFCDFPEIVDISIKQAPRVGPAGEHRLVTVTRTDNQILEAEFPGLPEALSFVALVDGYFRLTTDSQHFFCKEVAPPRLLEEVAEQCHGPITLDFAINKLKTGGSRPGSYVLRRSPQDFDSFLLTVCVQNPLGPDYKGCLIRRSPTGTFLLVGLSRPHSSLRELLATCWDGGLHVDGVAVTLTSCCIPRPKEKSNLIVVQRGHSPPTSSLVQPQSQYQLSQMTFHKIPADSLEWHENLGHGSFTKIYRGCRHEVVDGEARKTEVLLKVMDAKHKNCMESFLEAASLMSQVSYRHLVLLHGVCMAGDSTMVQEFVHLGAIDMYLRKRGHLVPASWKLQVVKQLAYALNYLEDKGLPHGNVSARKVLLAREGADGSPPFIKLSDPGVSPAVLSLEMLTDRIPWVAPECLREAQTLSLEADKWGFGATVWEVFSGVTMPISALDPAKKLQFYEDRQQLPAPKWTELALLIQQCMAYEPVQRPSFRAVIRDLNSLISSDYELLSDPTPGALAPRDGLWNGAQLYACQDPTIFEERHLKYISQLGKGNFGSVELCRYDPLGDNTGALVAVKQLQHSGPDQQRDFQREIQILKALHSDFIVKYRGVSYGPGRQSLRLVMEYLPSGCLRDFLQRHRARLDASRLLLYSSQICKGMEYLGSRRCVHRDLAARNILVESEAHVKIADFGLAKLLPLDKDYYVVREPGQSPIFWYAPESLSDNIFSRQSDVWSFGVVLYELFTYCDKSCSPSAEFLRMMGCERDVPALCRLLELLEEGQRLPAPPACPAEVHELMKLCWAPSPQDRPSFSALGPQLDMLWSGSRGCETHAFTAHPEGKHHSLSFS

Structure (SMILES) | Tyk 2 (pKi) (Tyk2) | JAK 2 (pKi) (JAK2) | JAK 3 (pKi) (JAK3) | JAK3 (pKi)-JAK1 (pKi) (JAK3) | JAK 1 (pKi) (JAK1) | Tall-1 (pIC50) [1] | Caco Kp (Caco-2 cell monolayers)
C=CC(=O)N1CC(CCn2c(=O)ccc3cnc(Nc4cccc(N5CCN(C(=O)OC)CC5)c4)nc32)C1 [Example 123] | E (E represents a pKi value of 7 or below (Ki of 100 nM or above)) | E (E represents a pKi value of 7 or below (Ki of 100 nM or above)) | B (B represents pKi value between 9 and 10 (Ki between 1 nM and 0.1 nM)) | A (A represents a value of 3 or above) | E (E represents a pKi value of 7 or below (Ki of 100 nM or above)) | B (B represents a pC50 value between 6.7 (included) and 7.5 (IC50 between 200 nM and 32 nM)) | C (C represents a value between 10×10^−6 and 30×10^−6 cm/sec)
C=CC(=O)N1CCN(CCn2c(=O)ccc3cnc(Nc4ccc(N5CCN(C(=O)OC)CC5)cc4)nc32)[C@@H](CC)C1 [Example 190] | E (E represents a pKi value of 7 or below (Ki of 100 nM or above)) | E (E represents a pKi value of 7 or below (Ki of 100 nM or above)) | A (A represents a pKi value≥10 (Ki≤0.1 nM)) | A (A represents a value of 3 or above) | E (E represents a pKi value of 7 or below (Ki of 100 nM or above)) | B (B represents a pC50 value between 6.7 (included) and 7.5 (IC50 between 200 nM and 32 nM)) | C (C represents a value between 10×10^−6 and 30×10^−6 cm/sec)
C=CC(=O)N1CCN(CCn2c(=O)ccc3cnc(Nc4ccc(N5CCN(C(=O)OC)CC5)cc4)nc32)CC1 [Example 145] | E (E represents a pKi value of 7 or below (Ki of 100 nM or above)) | E (E represents a pKi value of 7 or below (Ki of 100 nM or above)) | B (B represents pKi value between 9 and 10 (Ki between 1 nM and 0.1 nM)) | A (A represents a value of 3 or above) | E (E represents a pKi value of 7 or below (Ki of 100 nM or above)) | B (B represents a pC50 value between 6.7 (included) and 7.5 (IC50 between 200 nM and 32 nM)) | B (B represents a value between 5×10^−6 and 10×10^−6 cm/sec)
C=CC(=O)N1CC(CCn2c(=O)ccc3cnc(Nc4ccc(N5CCN(C)CC5)c(OC)c4)nc32)C1 [Example 135] | E (E represents a pKi value of 7 or below (Ki of 100 nM or above)) | E (E represents a pKi value of 7 or below (Ki of 100 nM or above)) | B (B represents pKi value between 9 and 10 (Ki between 1 nM and 0.1 nM)) | A (A represents a value of 3 or above) | E (E represents a pKi value of 7 or below (Ki of 100 nM or above)) | B (B represents a pC50 value between 6.7 (included) and 7.5 (IC50 between 200 nM and 32 nM)) | A (A represents a value below 5×10^−6 cm/sec)
C=CC(=O)N1CCN(CCn2c(=O)ccc3cnc(Nc4ccc(N5CCN(S(=O)(=O)CCOC)CC5)cc4)nc32)[C@@H](CC)C1 [Example 191] | E (E represents a pKi value of 7 or below (Ki of 100 nM or above)) | E (E represents a pKi value of 7 or below (Ki of 100 nM or above)) | A (A represents a pKi value≥10 (Ki≤0.1 nM)) | A (A represents a value of 3 or above) | E (E represents a pKi value of 7 or below (Ki of 100 nM or above)) | B (B represents a pC50 value between 6.7 (included) and 7.5 (IC50 between 200 nM and 32 nM)) | B (B represents a value between 5×10^−6 and 10×10^−6 cm/sec)
